# Target: human Melanocortin-4 receptor (MC4R) (Homo sapiens (Human), UniProt P32245)
# Test: Functional in vitro MC4R antagonist potency assay (cAMP HTRF in CHO cells)
# Format: cell-based
# Details: human MC4R in CHO cells, cAMP HTRF, 200 nM aMSH challenge; Kb from IC50 by Leff-Dougall equation; geometric mean; read-out: Kb (nM) Antagonist geometric
# Procedure: Example BB. Functional In Vitro MC4R Antagonist Potency Assay
# The functional in vitro antagonist potency for test compounds was determined by monitoring intracellular cyclic adenosine monophosphate (cAMP) levels in Chinese hamster ovary (CHO—) cells stably expressing the human Melanocortin-4 receptor (MC4R). Following agonist activation, human MC4R associates with the G-protein complex causing the Gα subunit to exchange bound GDP for GTP, followed by dissociation of the Ga-GTP complex. The activated Gα subunit can couple to downstream effectors to regulate the levels of second messengers or cAMP within the cell. Thereby, determination of intracellular cAMP levels allows for pharmacological characterization. Intracellular cAMP levels are quantitated using a homogenous assay utilizing the Homogeneous Time-Resolved Fluorescence (HTRF) technology from CisBio. The method is a competitive immunoassay between native cAMP produced by cells and the cAMP labelled with the acceptor dye, d2. The two entities then compete for binding to a monoclonal anti-cAMP antibody labeled with cryptate. The specific signal is inversely proportional to the concentration of cAMP in the cells.
# Test compounds were solubilized to 30 mM in 100% dimethyl sulfoxide (DMSO) and stored. […] The final compound concentration range in the assay was 400 nM to […], with a final DMSO concentration of 0.1%.
# (95% O2: 5% CO2) overnight, with micro-clime lids (Labcyte, Cat No. LLS-0310). […] Cells were incubated with compound for 30 minutes at 37° C. (95% O2: 5% CO2) before addition of 5 μL EC80, agonist stimulation (200 nM α-melanocyte stimulating hormone, aMSH, Bachem) and another 30-minute incubation at 37° C. (95% O2: 5% CO2). Intracellular cAMP levels were quantified as per Cisbio's protocol (5 uL of D2 and then 5 uL Cryptate, incubated for 1-2 hours at room temperature).
# Data expressed as nM cAMP were then normalized to control wells using Activity Base (IDBS). Zero percent effect (ZPE) was defined as nM of cAMP generated from ECK, agonist stimulation (200 nM aMSH). In the absence of an antagonist control compound, one hundred percent effect (HPE) was defined as nM of cAMP generated from assay buffer/vehicle only.
# Sequence of human Melanocortin-4 receptor (MC4R) (P32245 whole entry): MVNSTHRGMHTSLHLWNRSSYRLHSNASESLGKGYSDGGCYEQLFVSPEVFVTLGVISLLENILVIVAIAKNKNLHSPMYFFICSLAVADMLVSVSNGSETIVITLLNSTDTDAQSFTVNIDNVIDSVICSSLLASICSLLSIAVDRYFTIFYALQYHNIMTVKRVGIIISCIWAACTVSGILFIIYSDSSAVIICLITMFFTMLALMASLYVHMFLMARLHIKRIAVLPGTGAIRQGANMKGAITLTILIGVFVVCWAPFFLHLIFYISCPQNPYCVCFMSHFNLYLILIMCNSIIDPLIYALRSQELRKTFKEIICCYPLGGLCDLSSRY
row,SMILES,Kb
1,"COc1cc([C@](C)(F)C(=O)N2CC[C@@]3(CCc4cc(-c5ncccn5)c(C)nc4N3)C2)c(F)cn1 (single isomer, unassigned) [Example 148]",19 nM
2,"COc1cc([C@@H](C)C(=O)N2CC[C@@]3(CCc4cc(-c5cnn6cccnc56)c(C)nc4N3)C2)c(F)cn1 [Example 154, (2R)-2-(5-fluoro-2-methoxypyridin-4-yl)-1-[(2S)-7-methyl-6-(pyrazolo[1,5-a]pyrimidin-3-yl)-3,4-dihydro-1H-spiro[1,8-naphthyridine-2,3′-pyrrolidin]-1′-yl]propan-1-one]",9.5 nM
3,"COc1cc(C(C)C(=O)N2CC[C@@]3(CCc4cc(-c5nc(C(F)F)n(C)n5)c(C)nc4N3)C2)nc(C)n1 (single isomer, unassigned) [Example 123]",0.5 nM
4,"COc1cc([C@@H](C)C(=O)N2CC[C@@]3(CCc4cc(-c5ncc(C(F)(F)F)cn5)c(C)nc4N3)C2)c(F)cn1 [Example 145, (2R)-2-(5-fluoro-2-methoxypyridin-4-yl)-1-{(2S)-7-methyl-6-[5-(trifluoromethyl)pyrimidin-2-yl]-3,4-dihydro-1H-spiro[1,8-naphthyridine-2,3′-pyrrolidin]-1′-yl}propan-1-one]",54 nM
5,"COc1cc([C@@H](C)C(=O)N2CC[C@@]3(CCc4cc(-c5cnsc5)c(C)nc4N3)C2)c(F)cn1 [Example 150, (2R)-2-(5-fluoro-2-methoxypyridin-4-yl)-1-[(2S)-7-methyl-6-(1,2-thiazol-4-yl)-3,4-dihydro-1H-spiro[1,8-naphthyridine-2,3′-pyrrolidin]-1′-yl]propan-1-one]",9 nM
6,"Cc1nc2c(cc1-c1ncccn1)CC[C@@]1(CCN(C(=O)[C@H](C)c3ccc(F)cc3F)C1)N2 (single isomer, unassigned) [Example 190]",5.9 nM
7,"COc1cc([C@@H](C)C(=O)N2CC[C@@]3(CCc4cc(-c5cnn(C)c5)c(C)nc4N3)C2)c(Cl)cn1 (single isomer, unassigned) [Example 104]",0.06 nM
8,"COc1cc([C@@H](C)C(=O)N2CC[C@@]3(CCc4cc(-c5nc6n(n5)CCC6(F)F)c(C)nc4N3)C2)c(F)cn1 [Example 147, (2R)-1-[(2S)-6-(7,7-difluoro-6,7-dihydro-5H-pyrrolo[12-b][1,2,4]triazol-2-yl)-7-methyl-3,4-dihydro-1H-spiro[1,8-naphthyridine-2,3′-pyrrolidin]-1′-yl]-2-(5-fluoro-2-methoxypyridin-4-yl)propan-1-one]",0.57 nM
9,"COc1cc([C@@H](C)C(=O)N2CC[C@@]3(CCc4cc(-c5cnn(C)n5)c(C)nc4N3)C2)c(Cl)cn1 [Example 119, (2R)-2-(5-chloro-2-methoxypyridin-4-yl)-1-[(2S)-7-methyl-6-(2-methyl-2H-1,2,3-triazol-4-yl)-3,4-dihydro-1H-spiro[1,8-naphthyridine-2,3′-pyrrolidin]-1′-yl]propan-1-one]",> 1.1 nM
10,"COc1cc([C@@H](C)C(=O)N2CC[C@@]3(CCc4cc(-c5ccc(F)cn5)c(C)nc4N3)C2)c(F)cn1 [Example 139, (2R)-2-(5-fluoro-2-methoxypyridin-4-yl)-1-[(2S)-6-(5-fluoropyridin-2-yl)-7-methyl-3,4-dihydro-1H-spiro[1,8-naphthyridine-2,3′-pyrrolidin]-1′-yl]propan-1-one]",21 nM
11,"COc1cc([C@@H](C)C(=O)N2CC[C@@]3(CCc4cc(-c5ncc(Cl)cn5)c(C)nc4N3)C2)c(F)cn1 [Example 144, (2R)-1-[(2S)-6-(5-chloropyrimidin-2-yl)-7-methyl-3,4-dihydro-1H-spiro[1,8-naphthyridine-2,3′-pyrrolidin]-1′-yl]-2-(5-fluoro-2-methoxypyridin-4-yl)propan-1-one]",8.5 nM

# Same assay, conditions: read-out: Kb (nM) Antagonist geometric mean
row,SMILES,Kb
1,"COc1cc([C@@H](C)C(=O)N2CC[C@@]3(CCc4ccc(C)nc4N3)C2)c(Cl)cn1 (single isomer, unassigned) [Example 100]",5.5 nM
2,"COc1cc([C@@H](C)C(=O)N2CC[C@@]3(CCc4cc(-c5ncccn5)c(C)nc4N3)C2)cc(OC)n1 (single isomer, unassigned) [Example 83]",0.54 nM
3,"Cc1nc2c(cc1-c1cnn(C)c1)CC[C@@]1(CCN(C(=O)Cc3ccc(F)cc3)C1)N2 (stereo in doubt) [Example 89, 2-(4-fluorophenyl)-1-[7-methyl-6-(1-methyl-1H-pyrazol-4-yl)-3,4-dihydro-1H-spiro[1,8-naphthyridine-2,3′-pyrrolidin]-1′-yl]ethan-1-one]",> 40 nM
4,"COc1cc([C@H](C)C(=O)N2CC[C@@]3(CCc4cc(-c5ncccn5)c(C)nc4N3)C2)c(F)cn1 [Example 28, (2S)-2-(5-fluoro-2-methoxypyridin-4-yl)-1-[(2S)-7-methyl-6-(pyrimidin-2-yl)-3,4-dihydro-1H-spiro[1,8-naphthyridine-2,3′-pyrrolidin]-1′-yl]propan-1-one]",> 97 nM
5,"COc1cnc(-c2cc3c(nc2C)N[C@@]2(CC3)CCN(C(=O)[C@H](C)c3cc(OC)ncc3F)C2)nc1 [Example 67, (2R)-2-(5-fluoro-2-methoxypyridin-4-yl)-1-[(2S)-6-(5-methoxypyrimidin-2-yl)-7-methyl-3,4-dihydro-1H-spiro[1,8-naphthyridine-2,3′-pyrrolidin]-1′-yl]propan-1-one]",14 nM

# Target: hMC4R (Homo sapiens (Human), UniProt P32245)
# Sequence (P32245 whole entry): as above
# Test: In vitro binding affinity assay using hMC4R (radioligand competition binding, [125I]-(Nle4, D-Phe7)-α-MSH)
# Details: geometric mean, read-out: Ki (nM) geometric
# Procedure: Example AA. In Vitro Binding Affinity Assay Using hMC4R
# The binding affinity of test compounds at the […] (hMC4R) was assessed using a radioligand competition binding assay. […] Cell membranes were bulked and frozen until the assay was performed.
# Compounds were solubilized in 100% dimethyl sulfoxide (DMSO) to a concentration of 30 mM. A 10-point intermediate dilution series using half log dilutions was created in 100% DMSO with a top concentration of 0.03 mM. […] The final compound range in the assay was 300 nM to 0.01 nM with a final DMSO concentration of 1%. […] The exact concentration of radioligand used for each experiment was determined by liquid scintillation counting and adjusted if necessary.
# Frozen hMC4R cell membranes were thawed and Dounce homogenized. Homogenates were resuspended in assay buffer to a concentration of 2 μg per well. […] The plates were incubated for 2 hours at room temperature.
# The raw data (expressed as counts per minute) were analyzed using ActivityBase (IDBS Data Management Software). […] Equilibrium dissociation constant for inhibitor of ligand and receptor interaction (Ki) values were then calculated from the IC50 values using the Cheng-Prusoff equation: Ki=IC50/(1+([L]/Kd)), where [L] is the concentration of the radioligand used in the experiment and Kd is the affinity of the radioligand (determined in separate saturation experiments).
row,SMILES,Ki
1,"Cc1nc2c(cc1-c1nnn(C)n1)CC[C@@]1(CCN(C(=O)[C@H](C)c3ccc(C(F)(F)F)cc3)C1)N2 (single isomer, unassigned) [Example 110]",29 nM
2,"COc1cc([C@@H](C)C(=O)N2CC[C@@]3(CCc4cc(-c5ncccn5)c(C)nc4N3)C2)cc(OC(F)F)n1 (single isomer, unassigned) [Example 193]",28 nM

# Same assay, conditions: geometric mean, read-out: Ki (nM) geometric mean
row,SMILES,Ki
1,"Cc1nc2c(cc1-c1ncccn1)CC[C@@]1(CCN(C(=O)[C@H](C)c3cc(OC(F)F)ncc3F)C1)N2 (single isomer, unassigned) [Example 77]",84 nM
2,"Cc1nc2c(cc1-c1cnn(C)c1)CCC1(CCN(C(=O)Cc3ccc(F)cc3)C1)N2 (single isomer, unassigned) [Example 20, 2-(4-fluorophenyl)-1-[7-methyl-6-(1-methyl-1H-pyrazol-4-yl)-3,4-dihydro-1H-spiro[1,8-naphthyridine-2,3′-pyrrolidin]-1′-yl]ethan-1-one]",0.6 nM
3,"Cc1nc2c(cc1-c1ncccn1)CC[C@@]1(CCN(C(=O)[C@H](C)c3cc(OC(F)F)ncc3Cl)C1)N2 (single isomer, unassigned) [Example 59]",99 nM
4,"COc1cc(OC)cc([C@@H](C)C(=O)N2CC[C@@]3(CCc4cc(-c5cnn(C)c5)c(C)nc4N3)C2)c1 (single isomer, unassigned) [Example 91]",17 nM
5,"COc1cc([C@@H](C)C(=O)N2CC[C@@]3(CCc4ccc(C)nc4N3)C2)c(Cl)cn1 (single isomer, unassigned) [Example 101]",110 nM
6,"Cc1ccc2c(n1)NC1(CCN(C(=O)Cc3ccc(F)cc3)C1)CC2C (single isomer, unassigned) [Example 12, 1-(4,7-dimethyl-3,4-dihydro-1H-spiro[1,8-naphthyridine-2,3′-pyrrolidin]-1′-yl)-2-(4-fluorophenyl)ethan-1-one]",> 2200 nM
7,"Cc1nc2c(cc1-c1ncccn1)CC[C@@]1(CCN(C(=O)[C@H](C)c3cc(OC(F)(F)F)ncc3F)C1)N2 (single isomer, unassigned) [Example 75]",180 nM
8,"COc1cc([C@@H](C)C(=O)N2CC[C@@]3(CCc4cc(-c5ncccn5)c(C)nc4N3)C2)cc(OC)n1 (single isomer, unassigned) [Example 84]",52 nM

# Reference: US12187727B2, “Methods for antagonizing a melanocortin 4 receptor” (Pfizer Inc., priority 2020, dated 2025)
